{"source": "patent US7001770B1", "about": "“Calpain inhibitors and their applications” (priority 1998, dated 2006)", "key": {"[1]": {"tested_on": "p53 protein levels in Hep3B cells (p53 null)", "experiment": "Western blot of p53 protein levels", "format": "cell-based", "settings": "rAd-p53 in the presence of 10 μM calpain inhibitor 1 versus rAd53 alone; 17 hours", "method": "To determine if increases in exogeneous p53 levels occurred in response to CI-1, the p53 null cell line Hep3B was infected with 1×10^9 particle/ml and assayed for p53 protein levels by western blots 17 hours post-infection. No p53 protein was detected in untreated Hep3B. p53 protein was detected in cells infected with rAd53 alone, and increased greater then 10 fold when infected with rAd-p53 in the presence of 10 μM calpain inhibitor 1. […] The enhancement of p53 stability by CI-1 may not, therefore, be the sole mechanism by which enhanced cell death has been achieved. […] Thus, a new mechanism of action is involved other than p53 stability in the increased induction of apoptosis by the combination of CI-1 and p53.\nAt 17 hours post treatment, cells were lysed in protein lysis buffer (50 mM tris, 250 mM NaCl, 50 mM NaF, 5 mM EDTA and 0.1% NP-40 with 1 mM PMSF). Cell lysates were subjected to electrophoresis. 10 μg of protein was added per lane on a 12% polyacrylamide gel and transfered onto nitrocellulose membranes. The membranes were subjected to western blot analysis using antibodies specific for p53 or p21 (Calbiochem, p53 antibody Ab-6, and p21 antibody Ab-7). […] Blots were developed using enhanced chemiluminescence detection system (Amersham) and quantitated using NIH imaging analysis."}, "NCI-H596 cells": {"tested_on": "NCI-H596 cells", "experiment": "Apoptosis by annexin V-FITC staining, flow cytometry", "format": "cell-based", "settings": "CI-1 treatment; p53 mutated lung cell line", "method": "(§1) The effect of an inhibitor of μ-calpains, CI-1 (N-acetyl-leu-leu-norleucinal), was investigated for its ability to enhance p53 mediated apoptosis in tumor cell lines having p53+ and p53− status listed in Table1. Each cell line was treated with 5–50 μM CI-1 for 17–26 hours. To detect a G0/G1 block, bromodeoxyuridine (BrdU) incorporation followed by flow cytometric analysis was done 17 hours post-treatment as described in Example 4 herein. […] The results of these experiments are presented in FIGS. 1 and 2 of the attached drawings. In FIG. 1, each point on the graph represents percentage annexin V positive after background percentage (DMF alone) was subtracted.\n(§2) CI-1 was obtained from Boehringer-Mannheim Biochemicals (Indianapolis, Ind.). The CI-1 containing media was prepared as follows. CI-1 was diluted in dimethylformamide (DMF) to a concentration of 33.3 μM/μl. The CI-1 solution in DMF was added to achieve a final concentration in the media of 5 or 10 μM final concentration of CI-1. An equivalent volume of DMF alone was added to the control cells. Calpain inhibitor 2, N-acetyl-leu—leu-methioninal (Boehringer Mannheim) was added to cell lines at 5–50 μM final concentration with or without rAd-p53 for 26 hours.\n(§3) At a time of 17 (or 26 hours) post infection, the percentage of cells undergoing apoptosis was determined by convential apoptotic markers. Apoptosis was monitored visually by observing blebbed nuclei characteristic of apoptosis, by propidium iodide staining (using propidium iodide commercially available from Molecular Probes, Inc.) followed by flow cytometric analysis to look for subgenomic populations of cells, and by labeling cells with annexin V-FITC (commercially available from Boehringer Mannheim) in substantial accordance with the instructions provided by the manufacturer, followed by flow cytometric analysis on a FACScan Flow Cytometer (commercially available from Becton Dickinson)."}, "Hep3B cells": {"tested_on": "Hep3B cells", "experiment": "Apoptosis by annexin V-FITC staining, flow cytometry", "format": "cell-based", "settings": "for Percent Annexin V Positive Staining: 26 hours post treatment", "method": "as §1, §2, §3"}, "A549 cells": {"tested_on": "A549 cells", "experiment": "Apoptosis by annexin V-FITC staining, flow cytometry", "format": "cell-based", "settings": "26 hours post treatment", "method": "as §1, §2, §3"}, "CTL response": {"tested_on": "CTL response", "experiment": "In vivo CTL response to recombinant adenoviral vector (51Cr release)", "parameters": "species or system C57BL/6 mice", "settings": "for CTL response to the adenoviral vector: 60 mg/Kg or 120 mg/Kg calpain inhibitor 1, 9×10^9 particles/animal iv, spleens day 10", "method": "FIG. 11 is a graphical results of the cytotoxicity assay of CTL against ACN53 transduced EL-4 targets in C57/B16 mice injected with 60 mg/Kg (A) or 120 mg/Kg (♦) calpain inhibitor 1 in combination with ACN53 as more fully described in Example 7 herein. Percent lysis is plotted on the vertical axis and time on the horizontal axis. The ACN53 alone is represented by the circles (●) and the naive control level is represented by the squares (▪).\nThe applicants hypothesized that the combined effect on MHC Class 1 presentation and apoptosis of non-transduced will reduce the immune response to the viral vectors. This was confirmed in a in vivo mouse model in substantial accordance with the teaching of example […] herein. The results are shown in the FIG. 8 of the attached drawings.\nC57BU6 mice (2 mice per dose) were injected intravenously with 9×10^9 particles/animal (iv/200 μl) of a recombinant adenoviral vector encoding the βgal reporter gene under control of the CMV promoter. Naive mice were employed as controls. The spleens were harvested at day 10 for immunological analysis. Livers were harvested for analysis of β-gal transgene expression. Cells were be dispersed to a single cell suspension and washed 3 times. The cells were be resuspended complete RPMI-10 (RPMI+10% FCS, 2ME (5 μM), glutamine, Na pyruvate, Pen/Strep). Responder CTL cells were seeded in 24-well plates at 8×10^6 cells per well in 1.5 ml RPMI-5%. The responder CTL cells were restimulated by adding syngeneic (C57BL/6) spleen cells that were transduced for 6 hours with 2×10^10 BGCG particles/ml and then mitomycin treated to inhibit proliferation and/or activation of stimulator cell populations. The responder CTL were co-cultured with the stimulator cells at 37° C. in a humidified incubator for seven days. […] The Effector CTL cells were harvested, washed 2 times and counted to enumerate the CTL effector cells. […] The Effector CTL cells were co-cultivated with the target cells for 6 hours and the specific ^51Cr release were determined by counting harvested supernates (100 μl) in the γ counter."}}, "note": "Square brackets hold non-standard residues; d marks the D form. Peptide text beside a SMILES is read from it. Nle = CCCC[C@H](N)C(=O)O"}
{"smiles": "CCCC[C@@H](C=O)NC(=O)[C@H](CC(C)C)NC(=O)[C@H](CC(C)C)NC(C)=O", "note": "[CI-1, N-acetyl-leu-leu-norleucinal] (Ac-Leu-Leu-[Nle]-aldehyde)", "values": [{"measurement": "increase in p53 protein", "setting": "[1]", "value": "> 10", "unit": "fold"}, {"measurement": "increase in the percent of cells annexin V positive in response to treatment", "setting": "NCI-H596 cells", "value": "no increase"}, {"measurement": "Percent Annexin V Positive Staining", "setting": "Hep3B cells; CI-1 20 μM", "value": 36, "unit": "%"}, {"measurement": "Percent Annexin V Positive Staining", "setting": "Hep3B cells; CI-1 50 μM", "value": 32, "unit": "%"}, {"measurement": "increase in the percentage of apoptotic cells", "setting": "Hep3B cells; highest concentration of inhibitor (50 μM), p53 null", "value": "no increase"}, {"measurement": "Percent Annexin V Positive Staining", "setting": "A549 cells; CI-1 10 μM", "value": 6, "unit": "%"}, {"measurement": "Percent Annexin V Positive Staining", "setting": "A549 cells; CI-1 20 μM", "value": 5, "unit": "%"}, {"measurement": "Percent Annexin V Positive Staining", "setting": "A549 cells; CI-1 50 μM", "value": 18, "unit": "%"}, {"measurement": "CTL response to the adenoviral vector", "setting": "CTL response", "value": "significant inhibition"}, {"measurement": "CTL response to the adenoviral vector", "setting": "CTL response; listed as calpain inhibitor 1", "value": "substantially reduced"}, {"measurement": "relative number of CTL lytic-units (effector to target ratio giving 25% killing)", "setting": "CTL response; treatment with calpain inhibitor CI-1, BGCG injected mice", "value": "greater than a five-fold decrease"}]}
